Test results as given in patent publication US12187723B2 (BRISTOL-MYERS SQUIBB COMPANY, priority 2019, dated 2025).
pIC50: −log10 of the molar value.

Tests used:
[1] = target: T1, human TLR9 (Homo sapiens, UniProt Q9NR96); test: TLR9 inhibition reporter assay (HEK-Blue SEAP); format: cell-based; conditions: HEK-Blue cells overexpressing human TLR9, ODN2006 5 nM, 22 hour incubation
T1 construct: host or cells: HEK-Blue cells
T1 sequence (Q9NR96 26-1032): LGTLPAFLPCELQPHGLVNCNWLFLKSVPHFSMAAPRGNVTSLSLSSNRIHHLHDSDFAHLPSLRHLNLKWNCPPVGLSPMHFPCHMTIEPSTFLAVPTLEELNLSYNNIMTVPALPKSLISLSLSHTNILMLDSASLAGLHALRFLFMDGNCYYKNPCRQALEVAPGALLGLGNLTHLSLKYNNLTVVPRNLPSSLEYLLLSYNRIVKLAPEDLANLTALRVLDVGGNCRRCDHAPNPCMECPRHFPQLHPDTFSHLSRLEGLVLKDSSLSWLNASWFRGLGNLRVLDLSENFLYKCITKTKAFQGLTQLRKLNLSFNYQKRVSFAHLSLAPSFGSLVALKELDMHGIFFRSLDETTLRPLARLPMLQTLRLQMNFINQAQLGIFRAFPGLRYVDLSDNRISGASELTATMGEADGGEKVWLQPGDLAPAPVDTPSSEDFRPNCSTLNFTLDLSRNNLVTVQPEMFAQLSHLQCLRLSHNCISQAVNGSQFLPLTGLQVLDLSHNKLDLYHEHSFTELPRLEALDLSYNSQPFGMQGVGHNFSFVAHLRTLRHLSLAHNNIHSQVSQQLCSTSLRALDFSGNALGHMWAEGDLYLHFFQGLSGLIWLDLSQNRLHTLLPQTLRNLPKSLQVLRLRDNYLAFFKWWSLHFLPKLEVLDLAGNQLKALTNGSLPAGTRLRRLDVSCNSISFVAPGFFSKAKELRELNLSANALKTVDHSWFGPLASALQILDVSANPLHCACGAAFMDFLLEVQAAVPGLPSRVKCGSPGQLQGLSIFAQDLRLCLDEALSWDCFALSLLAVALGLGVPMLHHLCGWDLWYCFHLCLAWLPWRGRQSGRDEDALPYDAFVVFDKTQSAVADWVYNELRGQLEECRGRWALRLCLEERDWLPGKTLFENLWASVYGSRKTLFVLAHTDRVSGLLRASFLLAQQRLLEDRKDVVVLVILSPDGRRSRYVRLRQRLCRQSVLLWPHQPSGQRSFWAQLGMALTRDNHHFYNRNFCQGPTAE
Summary of the method: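 Compound treatment: 30 min, RT, 0.05 nM–50 μM final. Agonist: TLR7 gardiquimod 7.5 μM; TLR8 R848 15.9 μM; TLR9 ODN2006 5 nM. Incubation 22 h, 37 °C, 5% CO2. Readout SEAP, HEK-Blue Detection.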

[2] = target: T2, human TLR7 (Homo sapiens, UniProt Q9NYK1); test: TLR7 inhibition reporter assay (HEK-Blue SEAP); format: cell-based; conditions: HEK-Blue cells overexpressing human TLR7, gardiquimod 7.5 μM, 22 hour incubation
T2 construct: host or cells: HEK-Blue cells
T2 sequence (Q9NYK1 27-1049): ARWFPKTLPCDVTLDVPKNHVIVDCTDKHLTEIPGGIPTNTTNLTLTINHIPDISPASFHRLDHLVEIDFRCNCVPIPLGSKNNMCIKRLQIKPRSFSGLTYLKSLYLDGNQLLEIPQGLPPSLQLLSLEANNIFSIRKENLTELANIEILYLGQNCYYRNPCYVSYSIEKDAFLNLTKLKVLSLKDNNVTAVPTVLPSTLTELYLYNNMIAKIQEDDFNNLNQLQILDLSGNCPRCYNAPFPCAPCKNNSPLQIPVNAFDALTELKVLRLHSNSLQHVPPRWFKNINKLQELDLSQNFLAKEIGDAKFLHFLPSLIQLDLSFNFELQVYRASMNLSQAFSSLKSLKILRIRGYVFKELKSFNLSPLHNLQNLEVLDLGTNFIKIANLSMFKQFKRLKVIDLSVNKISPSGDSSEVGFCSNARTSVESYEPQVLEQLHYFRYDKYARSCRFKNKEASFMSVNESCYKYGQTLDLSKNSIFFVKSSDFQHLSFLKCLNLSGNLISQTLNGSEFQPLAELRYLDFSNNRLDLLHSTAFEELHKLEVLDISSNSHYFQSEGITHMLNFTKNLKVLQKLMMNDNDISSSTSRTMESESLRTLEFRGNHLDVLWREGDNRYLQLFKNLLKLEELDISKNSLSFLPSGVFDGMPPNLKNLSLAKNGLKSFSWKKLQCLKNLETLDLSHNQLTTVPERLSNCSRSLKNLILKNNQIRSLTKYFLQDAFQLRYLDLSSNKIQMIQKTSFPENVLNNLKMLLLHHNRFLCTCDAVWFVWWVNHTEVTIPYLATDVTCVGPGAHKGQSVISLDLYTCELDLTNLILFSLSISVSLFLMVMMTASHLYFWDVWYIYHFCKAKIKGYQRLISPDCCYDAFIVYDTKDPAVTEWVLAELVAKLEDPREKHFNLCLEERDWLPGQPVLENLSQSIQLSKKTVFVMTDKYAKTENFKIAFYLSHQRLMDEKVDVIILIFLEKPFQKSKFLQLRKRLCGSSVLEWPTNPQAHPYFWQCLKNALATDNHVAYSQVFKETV
Summary of the method: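 22 h, 37° C, 5% CO2 incubation; compounds 0.05 nM-50 μM final; TLR7 cells 15000/well, TLR8 20,000/well. Readout: SEAP via HEK-Blue Detection medium. % inhibition = signal reduction versus agonist + DMSO wells, referenced to known inhibitor.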

COc1cc(-c2cc3[nH]c(=O)n([C@@H]4CCCN(C5COC5)C4)c3cc2C(C)C)cn2ncnc12 [Example 135, (R)-6-isopropyl-5-(8-methoxy-[1,2,4]triazolo[1,5-a]pyridin-6-yl)-1-(1-(oxetan-3-yl)piperidin-3-yl)-1,3-dihydro-2H-benzo[d]imidazol-2-one]
pIC50 [1]: < 4.30 | pIC50 [2]: 7.58

COc1cc(-c2cc3[nH]c(=O)n([C@@H]4CCCN(C)C4)c3cc2C(C)C)cn2ncnc12 [Example 136, (R)-6-isopropyl-5-(8-methoxy-[1,2,4]triazolo[1,5-a]pyridin-6-yl)-1-(1-methylpiperidin-3-yl)-1,3-dihydro-2H-benzo[d]imidazol-2-one]
pIC50 [1]: 4.83 | pIC50 [2]: 8.66

COc1cc(-c2cc3[nH]c(=O)n([C@@H]4CCCN(C(C)C)C4)c3cc2C(C)C)cn2ncnc12 [Example 137, (R)-6-isopropyl-1-(1-isopropylpiperidin-3-yl)-5-(8-methoxy-[1,2,4]triazolo[1,5-a]pyridin-6-yl)-1,3-dihydro-2H-benzo[d]imidazol-2-one]
pIC50 [1]: 5.15 | pIC50 [2]: 9.13

CCN1CCC[C@@H](n2c(=O)[nH]c3cc(-c4cc(OC)c5ncnn5c4)c(C(C)C)cc32)C1 [Example 138, (R)-1-(1-ethylpiperidin-3-yl)-6-isopropyl-5-(8-methoxy-[1,2,4]triazolo[1,5-a]pyridin-6-yl)-1,3-dihydro-2H-benzo[d]imidazol-2-one]
pIC50 [1]: 4.75 | pIC50 [2]: 8.56

COc1cc(-c2cc3[nH]c(=O)n([C@@H]4CCCN(CC5CCOCC5)C4)c3cc2C(C)C)cn2ncnc12 [Example 139, (R)-6-isopropyl-5-(8-methoxy-[1,2,4]triazolo[1,5-a]pyridin-6-yl)-1-(1-((tetrahydro-2H-pyran-4-yl)methyl)piperidin-3-yl)-1,3-dihydro-2H-benzo[d]imidazol-2-one]
pIC50 [1]: 5.11 | pIC50 [2]: 9.12

COc1cc(-c2cc3[nH]c(=O)n([C@@H]4CCCN(CC5CCC5)C4)c3cc2C(C)C)cn2ncnc12 [Example 140, (R)-1-(1-(cyclobutylmethyl)piperidin-3-yl)-6-isopropyl-5-(8-methoxy-[1,2,4]triazolo[1,5-a]pyridin-6-yl)-1,3-dihydro-2H-benzo[d]imidazol-2-one]
pIC50 [1]: 5.19 | pIC50 [2]: 8.89

COc1cc(-c2cc3[nH]c(=O)n([C@@H]4CCCN(CC(C)C)C4)c3cc2C(C)C)cn2ncnc12 [Example 141, (R)-1-(1-isobutylpiperidin-3-yl)-6-isopropyl-5-(8-methoxy-[1,2,4]triazolo[1,5-a]pyridin-6-yl)-1,3-dihydro-2H-benzo[d]imidazol-2-one]
pIC50 [1]: 5.41 | pIC50 [2]: 9.92

COc1cc(-c2cc3[nH]c(=O)n([C@@H]4CCCN(CC5CC5)C4)c3cc2C(C)C)cn2ncnc12 [Example 142, (R)-1-(1-(cyclopropylmethyl)piperidin-3-yl)-6-isopropyl-5-(8-methoxy-[1,2,4]triazolo[1,5-a]pyridin-6-yl)-1,3-dihydro-2H-benzo[d]imidazol-2-one]
pIC50 [1]: 5.22 | pIC50 [2]: 9.19

COc1cc(-c2cc3[nH]c(=O)n([C@@H]4CCCN(C5CCOCC5)C4)c3cc2C(C)C)cn2ncnc12 [Example 143, (R)-6-isopropyl-5-(8-methoxy-[1,2,4]triazolo[1,5-a]pyridin-6-yl)-1-(1-(tetrahydro-2H-pyran-4-yl)piperidin-3-yl)-1,3-dihydro-2H-benzo[d]imidazol-2-one]
pIC50 [1]: 4.99 | pIC50 [2]: 8.47

Cc1c(-c2cc3[nH]c(=O)n([C@@H]4CCCN(C(C)C)C4)c3cc2C(C)C)cn2ncnc2c1C [Example 145, (R)-5-(7,8-dimethyl-[1,2,4]triazolo[1,5-a]pyridin-6-yl)-6-isopropyl-1-(1-isopropylpiperidin-3-yl)-1,3-dihydro-2H-benzo[d]imidazol-2-one]
pIC50 [1]: 4.84 | pIC50 [2]: 8.43
